IC50 data for 25 compounds are collected here from patent US20220380374A1, “1,4-DIHYDROBENZO[D]PYRAZOLO[3,4-F][1,3]DIAZEPINE DERIVATIVES AND RELATED COMPOUNDS AS LRRK2, NUAK1 AND/OR TYK2 KINASE MODULATORS FOR THE TREATMENT OF E.G. AUTOIMMUNE DISEASE” (Origenis GMBH, priority 2019, published 2022).

The target of assay [1] is T1, wt human NUAK1, full length (Homo sapiens, UniProt O60285).
T1 construct: 8 nM wt human NUAK1, full length (ThermoFisher/USA); purchased ThermoFisher/USA
T1 sequence (O60285 1-661): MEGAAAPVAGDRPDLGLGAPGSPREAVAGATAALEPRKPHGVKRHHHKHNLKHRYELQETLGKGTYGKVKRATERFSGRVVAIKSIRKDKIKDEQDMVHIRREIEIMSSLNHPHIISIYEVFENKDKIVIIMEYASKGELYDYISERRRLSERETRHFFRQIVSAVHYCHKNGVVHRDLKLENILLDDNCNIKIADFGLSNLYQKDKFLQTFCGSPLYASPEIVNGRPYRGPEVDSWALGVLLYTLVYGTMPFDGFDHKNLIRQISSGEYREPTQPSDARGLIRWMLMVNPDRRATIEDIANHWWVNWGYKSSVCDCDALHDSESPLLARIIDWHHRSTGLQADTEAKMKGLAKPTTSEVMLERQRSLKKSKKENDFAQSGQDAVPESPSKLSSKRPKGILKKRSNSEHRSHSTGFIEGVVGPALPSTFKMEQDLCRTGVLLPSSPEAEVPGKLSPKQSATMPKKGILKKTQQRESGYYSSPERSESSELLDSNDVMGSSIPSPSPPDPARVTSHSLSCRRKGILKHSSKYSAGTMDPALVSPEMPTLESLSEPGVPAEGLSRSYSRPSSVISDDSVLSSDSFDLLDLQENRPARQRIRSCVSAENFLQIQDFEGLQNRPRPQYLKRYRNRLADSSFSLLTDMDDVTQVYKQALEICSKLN
The experiment in a line: TR-FRET LanthaScreen Eu Kinase Binding Assay, NUAK1. The conditions noted are these: 5 nM Kinase Tracer 236; read-out: IC50, inhibitory activity toward NUAK1. Summed up: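 TR-FRET tracer-displacement binding with 8 nM full-length wild-type human NUAK1, 2 nM Eu-anti-His antibody and 5 nM Kinase Tracer 236 in 1× Kinase Buffer A (final). Compound, kinase/antibody and tracer incubated 1 h at room temperature; emission ratios analysed per kit protocol.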

Assay [2] addresses T2, wt human TYK2, catalytic site (Homo sapiens, UniProt P29597).
T2 construct: 2 nM wt human TYK2, catalytic site (SignalChem/CAN); purchased SignalChem/CAN
T2 sequence (P29597 897-1176 limits assumed): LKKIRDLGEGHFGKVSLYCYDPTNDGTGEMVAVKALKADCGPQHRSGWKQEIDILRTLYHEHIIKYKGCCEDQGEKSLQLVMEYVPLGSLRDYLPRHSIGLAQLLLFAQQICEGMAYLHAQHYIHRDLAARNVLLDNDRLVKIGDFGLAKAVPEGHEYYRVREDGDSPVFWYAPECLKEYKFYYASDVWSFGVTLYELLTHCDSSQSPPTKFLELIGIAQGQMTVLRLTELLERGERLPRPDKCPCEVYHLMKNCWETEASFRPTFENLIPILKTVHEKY
The experiment in a line: HTRF KinEASE assay, TYK2. The format is biochemical. Conditions: 1 μM ATP; read-out: IC50, inhibitory activity toward TYK2. The protocol: Basic protocol for HTRF KinEASE assay (Cisbio/FRA) inhibitor studies involved two steps: Enzymatic step: Addition of 4 μl of test compound in corresponding DMSO dilutions, 4 μl of kinase/substrate mixture, 2 μl of ATP into 384 well small volume plates. Incubation for at least 30 minutes at room temperature.
Detection step: Addition of 5 μl antibody and 5 μl streptavidin-XL665, read plate after 60 minutes. Data analysis of emission ratios according to KinEASE assay protocol.
Kinase and assay components were adjusted to final concentrations according to the kit protocol. For TYK2: 2 nM wt human TYK2, catalytic site (SignalChem/CAN), 1 μM HTRF KinEASE-TK Substrate-biotin, 1 μM ATP in 1× Kinase Buffer

pIC50: −log10 of the molar value.

On to `CC(C)(O)c1ccc2c(c1)NC(c1c(F)cccc1F)=Nc1cn[nH]c1-2` [Compound 98, 2-(5-(2,6-difluorophenyl)-1,6-dihydrobenzo[d]pyrazolo[3,4-f][1,3]diazepin-8-yl)propan-2-ol], for which the pIC50 in assay [1] and in assay [2] was 7.00 to 8.00 throughout.

Consider `Fc1cccc(F)c1C1=Nc2cc(OC3CCOCC3)ccc2-c2[nH]ncc2N1` [Compound 99, 5-(2,6-difluorophenyl)-8-((tetrahydro-2H-pyran-4-yl)oxy)-1,4-dihydrobenzo[d]pyrazolo[3,4-f][1,3]diazepine], for which the negative logarithm of the IC50 (pIC50) in assay [1] and in assay [2] was 7.00 to 8.00 in each case.

Take `Nc1ccc2c(c1)-c1[nH]ncc1N=C(c1c(F)cccc1F)N2` [Compound 103, 5-(2,6-difluorophenyl)-1,6-dihydrobenzo[d]pyrazolo[3,4-f][1,3]diazepin-9-amine]: the pIC50 in assay [1] is 7.00 to 8.00; in assay [2], 6.00 to 7.00.

In the case of `O=C(NC1CCOCC1)c1ccc2c(n1)N=C(c1c(F)cccc1F)Nc1cn[nH]c1-2` [Compound 105, 5-(2,6-difluorophenyl)-N-(tetrahydro-2H-pyran-4-yl)-1,4-dihydropyrazolo[4,3-d]pyrido[3,2-f][1,3]diazepine-8-carboxamide], the pIC50 in assay [1] is 6.00 to 7.00; in assay [2], 7.00 to 8.00.

Regarding `COc1cccc(F)c1C1=Nc2cn[nH]c2-c2ccccc2N1` [Compound 114, 5-(2-fluoro-6-methoxyphenyl)-1,6-dihydrobenzo[d]pyrazolo[3,4-f][1,3]diazepine], the negative logarithm of the IC50 (pIC50) in assay [1] and in assay [2] was 6.00 to 7.00 each time.

For the compound `Cc1ccc2c(c1)-c1[nH]ncc1N=C(c1c(F)cccc1[N+](=O)[O-])N2` [Compound 125, 5-(2-fluoro-6-nitrophenyl)-9-methyl-1,6-dihydrobenzo[d]pyrazolo[3,4-f][1,3]diazepine], the figures for the pIC50 in assay [1] and in assay [2] were 7.00 to 8.00 and 6.00 to 7.00, respectively.

As for `Cc1ccc2c(c1)-c1[nH]ncc1N=C(c1c(F)cc(NCCF)cc1F)N2` [Compound 126, 3,5-difluoro-N-(2-fluoroethyl)-4-(9-methyl-1,6-dihydrobenzo[d]pyrazolo[3,4-f][1,3]diazepin-5-yl)aniline], the pIC50 in assay [1] is 7.00 to 8.00; in assay [2] it was 6.00 to 7.00.

With `COc1cc2c(cn1)NC(c1c(F)cccc1F)=Nc1cn[nH]c1-2` [Compound 127, 5-(2,6-difluorophenyl)-9-methoxy-1,6-dihydropyrazolo[4,3-d]pyrido[4,3-f][1,3]diazepine], the pIC50 in assay [1] and in assay [2] was 7.00 to 8.00 each time.

Regarding `Fc1cccc(F)c1C1=Nc2ccccc2-c2[nH]nc(Cl)c2N1` [Compound 135, 3-chloro-5-(2,6-difluorophenyl)-1,4-dihydrobenzo[d]pyrazolo[3,4-f][1,3]diazepine], the pIC50 in assay [1] and in assay [2] was 7.00 to 8.00 in each case.

On to `Cc1cc(F)c2c(c1)-c1[nH]ncc1NC(c1c(F)cccc1F)=N2` [Compound 138, 5-(2,6-difluorophenyl)-7-fluoro-9-methyl-1,4-dihydrobenzo [d]pyrazolo[3,4-f][1,3]diazepine], for which the results for the negative logarithm of the IC50 (pIC50) in assay [1] and in assay [2] were 7.00 to 8.00 and 6.00 to 7.00, respectively.

Regarding `Cc1ccc2c(c1)-c1[nH]nc(Cl)c1NC(c1c(F)cccc1F)=N2` [Compound 143, 3-chloro-5-(2,6-difluorophenyl)-9-methyl-1,4-dihydrobenzo[d]pyrazolo [3,4-f][1,3]diazepine], the pIC50 was 7.00 to 8.00 in assay [1] and 6.00 to 7.00 in assay [2].

On to `CSc1n[nH]c2c1NC(c1c(F)cccc1F)=Nc1ccccc1-2` [Compound 146, 5-(2,6-difluorophenyl)-3-(methylthio)-1,4-dihydrobenzo[d]pyrazolo [3,4-f][1,3]diazepine], for which the negative-log IC50 (pIC50) in assay [1] and in assay [2] was 6.00 to 7.00 each time.

For `Fc1cccc(F)c1C1=Nc2cn[nH]c2-c2cc(Cl)ncc2N1` [Compound 147, 9-chloro-5-(2,6-difluorophenyl)-1,6-dihydropyrazolo[4,3-d]pyrido[4,3-f][1,3]diazepine], the pIC50 in assay [1] and in assay [2] was 7.00 to 8.00 each time.

Turning to `OCCNc1cc(F)c(C2=Nc3c[nH]nc3-c3ccccc3N2)c(F)c1` [Compound 150, 2-((4-(2,6-dihydrobenzo[d]pyrazolo[3,4-f][1,3]diazepin-5-yl)-3,5-difluorophenyl)amino)ethan-1-ol], the negative logarithm of the IC50 (pIC50) in assay [1] and in assay [2] was 6.00 to 7.00 each time.

Turning to `Cc1ccc2c(c1)-c1[nH]ncc1NC(c1c(Cl)cccc1Cl)=N2` [Compound 152, 5-(2,6-dichlorophenyl)-9-methyl-1,4-dihydrobenzo[d]pyrazolo[3,4-f][1,3]diazepine], the pIC50 in assay [1] and in assay [2] was 6.00 to 7.00 in each case.

Turning to `Fc1cccc(Cl)c1C1=Nc2cc(OC3CCOCC3)ccc2-c2[nH]ncc2N1` [Compound 155, 5-(2-chloro-6-fluorophenyl)-8-((tetrahydro-2H-pyran-4-yl)oxy)-1,4-dihydrobenzo[d]pyrazolo[3,4-f][1,3]diazepine], the pIC50 in assay [1] and in assay [2] was 7.00 to 8.00 each time.

With `Cc1cc2c(cc1C(=O)O)NC(c1c(F)cccc1F)=Nc1cn[nH]c1-2` [Compound 156, 5-(2,6-difluorophenyl)-9-methyl-1,6-dihydrobenzo[d]pyrazolo[3,4-f][1,3]diazepine-8-carboxylic acid], the negative-log IC50 (pIC50) in assay [1] is 6.00 to 7.00; in assay [2], 7.00 to 8.00.

As for `Cc1cc2c(cc1C(=O)NC1CCOCC1)N=C(c1c(F)cccc1F)Nc1cn[nH]c1-2` [Compound 157, 5-(2,6-difluorophenyl)-9-methyl-N-(tetrahydro-2H-pyran-4-yl)-1,4-dihydrobenzo[d]pyrazolo[3,4-f][1,3]diazepine-8-carboxamide], the pIC50 was 6.00 to 7.00 in assay [1] and more than 8.00 in assay [2].

For the compound `COc1ccc2c(c1)N=C(c1c(F)cccc1Cl)Nc1cn[nH]c1-2` [Compound 158, 5-(2-chloro-6-fluorophenyl)-8-methoxy-1,4-dihydrobenzo[d]pyrazolo[3,4-f][1,3]diazepine], the pIC50 in assay [1] and in assay [2] was 7.00 to 8.00 each time.

Regarding `Fc1cccc(F)c1C1=Nc2cc(-c3ccn[nH]3)ccc2-c2[nH]ncc2N1` [Compound 159, 5-(2,6-difluorophenyl)-8-(1H-pyrazol-5-yl)-1,4-dihydrobenzo[d]pyrazolo[3,4-f][1,3]diazepine], the pIC50 in assay [1] and in assay [2] was 7.00 to 8.00 in each case.

Take `Fc1cccc(Cl)c1C1=Nc2cc(-c3ccn[nH]3)ccc2-c2[nH]ncc2N1` [Compound 160, 5-(2-chloro-6-fluorophenyl)-8-(1H-pyrazol-5-yl)-1,4-dihydrobenzo[d]pyrazolo[3,4-f][1,3]diazepine]: the pIC50 in assay [1] and in assay [2] was 7.00 to 8.00 each time.

Turning to `Cc1ccc2c(c1)-c1[nH]ncc1NC(c1c(F)cccc1Br)=N2` [Compound 161, 5-(2-bromo-6-fluorophenyl)-9-methyl-1,4-dihydrobenzo[d]pyrazolo[3,4-f][1,3]diazepine], the values for the pIC50 in assay [1] and in assay [2] were 7.00 to 8.00 and 6.00 to 7.00, respectively.

With `CC(=O)Nc1cccc(-c2ccc3c(c2)N=C(c2c(F)cccc2F)Nc2cn[nH]c2-3)c1` [Compound 162, N-(3-(5-(2,6-difluorophenyl)-1,4-dihydrobenzo[d]pyrazolo[3,4-f][1,3]diazepin-8-yl)phenyl)acetamide], the results for the pIC50 in assay [1] and in assay [2] were 7.00 to 8.00 and more than 8.00, respectively.

Turning to `Cc1ccc2c(c1)-c1[nH]ncc1NC(c1c(F)cccc1I)=N2` [Compound 163, 5-(2-fluoro-6-iodophenyl)-9-methyl-1,4-dihydrobenzo[d]pyrazolo[3,4-f][1,3]diazepine], the pIC50 in assay [1] and in assay [2] was 6.00 to 7.00 each time.

Take `COC(=O)Nc1ccc2c(c1)N=C(c1c(F)cccc1F)Nc1c[nH]nc1-2` [Compound 164, methyl(5-(2,6-difluorophenyl)-2,4-dihydrobenzo[d]pyrazolo[3,4-f][1,3]diazepin-8-yl)carbamate]: the pIC50 in assay [1] and in assay [2] was 7.00 to 8.00 each time.
